3 compounds from paper PMC5554220, “A Novel Aldosterone Antagonist Limits Renal Injury in 5/6 Nephrectomy” (Scientific Reports, 2017) can be followed below.

For data set [1], the system named is rats with 5/6 renal ablation (Nx). As to the kind of experiment: Protocol 1 (early treatment), 5/6 renal ablation (Nx). The format is in vivo, male Munich-Wistar rats. An excerpt:
(§1) One-hundred forty-five adult male Munich-Wistar rats, obtained from a local facility at the Faculty of Medicine, University of São Paulo, weighing between 220 and 250 g, were used in this study. All experimental procedures were approved by the local Research Ethics Committee (Comissão de Ética para Análise de Projetos de Pesquisa do Hospital das Clínicas da Faculdade de Medicina da Universidade de São Paulo, CAPPesq, process n° 0905/09), and carried out following strictly our institutional guidelines and current international standards for manipulation and care of laboratory animals. Body weights and general conditions were assessed daily. Five-sixths renal ablation (Nx) was performed as a single-step procedure under anesthesia with ketamine 50 mg/kg and xylazine 10 mg/kg im. After ventral laparotomy, the right kidney was excised and two or three branches of the left renal artery were ligated, so as to promote infarction of two-thirds of the left kidney. The operation was invariably well tolerated. Sham-operated rats underwent anesthesia and manipulation of the renal pedicles without removal of renal mass. After surgery, rats received enrofloxacin and, upon recovery, had free access to tap water and regular rodent chow containing 0.5 Na and 22% protein (Nuvital Labs, Curitiba, Brazil), and were kept at 23 ± 1 °C and 60 ± 5% relative air humidity, under an artificial 12–12 hour light/dark cycle. Rats were then treated following two different experimental protocols (described later).
In this first protocol, Nx rats were divided into groups: NX + V (N = 8), receiving vehicle; NX + Eple (N = 8), receiving oral (mixed with the chow) Eple, 150 mg/kg/day; and Nx + Ly (N = 8), receiving oral Ly, 20 mg/kg/day. A group of sham-operated rats (S, N = 7) was also studied. Treatments were started 24 h after surgery. Rats were followed during 60 days, with determination of TCP and UalbV on Days 30 and 60. TCP was assessed with an optoelectronic automated device (Visitech Systems, Apex, NC), after rats had been preconditioned so as to remain calm during the procedure. UalbV was measured with a conventional immunodiffusion technique. On Day 60, rats were anesthetized as described before, and blood was collected from the abdominal aorta for determination of serum creatinine, serum K^+, PRA and PAC. The remnant kidney was then perfusion-fixed with Duboscq-Brazil solution after a brief washout with saline to remove blood from renal vessels, and prepared for histomorphometric and immunohistochemical analyses using conventional sequential techniques.
(§2) Histomorphometric analysis was performed blindly by two independent observers. The extent of glomerular injury was estimated, in PAS-stained sections, by determining the percentage of glomeruli with sclerotic lesions. The fraction of the renal cortical area occupied by interstitial tissue (%INT) was estimated in 25 consecutive microscopic fields of Masson-stained sections by a point-counting technique, at a final magnification of 200X, under a 144-point grid.
PRA and PAC were determined using commercially available radioimmunoassay kits (Renin Active IRMA and Aldosterone Active RIA, Beckman Coulter, Carlsbad, CA).

Data set [2] has the same test system. As to the kind of experiment: Protocol 2 (late treatment), 5/6 renal ablation (Nx). The class given is in vivo, male Munich-Wistar rats.
Excerpt: as §1
In Protocol 2, adult male Munich-Wistar rats were subjected to Nx as described earlier, and left untreated for two months. At this time, TCP and UalbV were assessed as described earlier. Rats with TCP ≤ 170 mmHg or UalbV ≤ 40 mg/day were excluded from the study. The remaining […] Nx rats were divided into four experimental groups: Nx + V (N = 14), untreated Nx rats; Nx + L (N = 15), receiving oral L, 50 mg/kg in drinking water; Nx + L + Eple (N = 14), receiving L and Eple (N = 14), 150 mg/kg/day; and Nx + L + Ly (N = 14), receiving L and Ly (20 mg/kg/day) as described before. A group of S rats (N = 16) was also included. All groups were followed for 90 days after treatments were started (150 days after nephrectomy), with monthly measurement of TCP and UalbV. At the end of this period, rats were anesthetized, blood was collected, and the renal tissue was perfusion-fixed and prepared for histomorphometric and immunohistochemical examination in the same manner as for Protocol 1.
as §2
Immunohistochemistry was performed on 4-μm-thick sections, mounted on glass slides precoated with 2% silane. Sections were deparaffinized and rehydrated by conventional techniques, then heated in citrate buffer for antigen retrieval and incubated overnight with the primary antibody at 4 °C (no antibody in negative control experiments). Primary antibodies used were: monoclonal mouse anti-rat ED-1 (Serotec, Oxford, UK); polyclonal rabbit anti-human AngII (Peninsula Laboratories, San Carlos, CA); and polyclonal rabbit anti-collagen I (Abcam, Cambridge, UK).
For ED-1 detection, sections were preincubated with 5% normal rabbit serum to prevent nonspecific binding, then incubated overnight at 4 °C with the primary antibody diluted in BSA at 1%. […]

For the next data set, the system named is Nx rats. As to the kind of experiment: Preliminary experiments to determine the doses of Eple and Ly. The class given is in vivo. How it is done:
Preliminary experiments were performed to exclude the possibility that any differences between Eple and Ly, both in monotherapy and as add-ons to L, were simply due to the use of inadequately low doses of either compound. In the first set of experiments, Nx rats received Eple at the recommended dose of 85 mg/kg, and at 150 mg/kg, higher than in most studies reported so far. […] Other Nx rats received Ly at either 12 mg/kg (the recommended dose) or 20 mg/kg. […] Based on these preliminary results, we set the doses of Eple and Ly at 150 mg/kg and 20 mg/kg, respectively.

Data set [3] deals with T1, human glucocorticoid receptor (hGR) (Homo sapiens, UniProt P04150).
T1 construct: expressed in transfected cells; host or cells: HEK293 cells
T1 sequence (P04150 1-777): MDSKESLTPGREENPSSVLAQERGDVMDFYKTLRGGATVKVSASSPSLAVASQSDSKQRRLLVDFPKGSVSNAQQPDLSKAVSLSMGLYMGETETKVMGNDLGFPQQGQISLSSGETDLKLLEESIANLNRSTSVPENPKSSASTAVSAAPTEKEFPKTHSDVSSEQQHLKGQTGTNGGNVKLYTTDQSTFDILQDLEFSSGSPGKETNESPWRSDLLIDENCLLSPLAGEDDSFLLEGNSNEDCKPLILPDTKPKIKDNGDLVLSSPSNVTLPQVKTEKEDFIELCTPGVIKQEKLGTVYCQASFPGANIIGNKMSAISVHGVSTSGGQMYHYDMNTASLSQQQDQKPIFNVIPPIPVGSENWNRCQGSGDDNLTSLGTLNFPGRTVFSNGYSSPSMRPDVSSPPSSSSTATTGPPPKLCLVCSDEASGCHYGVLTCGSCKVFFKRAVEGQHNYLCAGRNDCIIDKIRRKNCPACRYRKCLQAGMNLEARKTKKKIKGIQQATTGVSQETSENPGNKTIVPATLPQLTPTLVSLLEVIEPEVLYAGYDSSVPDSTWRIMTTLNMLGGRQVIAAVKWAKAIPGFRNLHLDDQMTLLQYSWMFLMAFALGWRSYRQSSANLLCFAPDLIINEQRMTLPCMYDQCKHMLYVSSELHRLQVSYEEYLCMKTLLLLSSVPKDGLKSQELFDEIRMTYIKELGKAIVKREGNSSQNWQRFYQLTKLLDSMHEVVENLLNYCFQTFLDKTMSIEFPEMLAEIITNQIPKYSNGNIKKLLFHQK
Put plainly: Radioligand binding, hGR expressed in HEK293 cells. The conditions noted are these: hGR expressed in HEK293 cells; read-out: Mean Ki ± SEM hGR*. As to the method:
Affinity of ligands to the soluble receptor was determined using vacuum filtration methods, preparing soluble receptors in 96-well Falcon polystyrene plates (BD Biosciences, Bedford, MA) in a total volume of 250 μl. The hMR Sf9 lysate (approximately 20–25 μg protein in 20 μl) was incubated in the absence or presence of competing ligands with 10 μl of [1,2,6,7-3H] […] Binding studies for ligands for hPR and hAR were determined using [1,2,6,7-3H(N)] Progesterone (specific activity 103 Ci/mmol, at a final concentration 0.5 nM; NET381, NEN/Perkin Elmer Life Sciences, Boston, MA) and [17α-methyl-3H] Mibolerone, an enzymaticaly stable analog of testosterone (specific activity 76.8 Ci/mmol, final concentration 0.3 nM; NET919, NEN), respectively. Specific binding of 3H-progesterone for hPR and 3H-mibolerone for hAR was determined in the presence and absence of 1 μM mifepristone. Inhibition constants (Ki), were determined either from the Cheng-Prusoff equation[32], or directly using non-linear regression curve fitting to a three-parameter one-site competitive equation. Ki values obtained from individual concentration response curves were reported as the mean ± SEM. Protein was measured using colorimetric detection and quantification of bicinchoninic acid (BCA Protein Assay, Pierce, Rockford, IL). Cos-7L cells were cotransfected with expression vectors and a reporter plasmid responsive to all 3 nuclear hormone receptors. pBluescript II SK (+) (Stratagene, San Diego, CA) was included as a source of carrier DNA. The number of repetitions of full concentration response curves (n) represents values from at least two independent experiments for each condition. Concentration response curves were analyzed statistically using a four-parameter logistic equation (Hill equation for sigmoid curves). Similar methodology was adopted for the human glucocorticoid receptor (hGR) expressed in HEK293 cells.

Consider `COC(=O)[C@@H]1CC2=CC(=O)CC[C@]2(C)[C@@]23O[C@@H]2C[C@@]2(C)[C@@H](CC[C@@]24CCC(=O)O4)[C@H]13` [Eplerenone, eplerenone, reference compound], for which the “Albumin excretion rate (UalbV)” value in data set [1] (60 days after ablation, Eple 150 mg/kg/day, Ly 20 mg/kg/day oral) is reported as “slightly, but not significantly, attenuated”. In data set [1] (Day 60), the “Fractional cortical interstitial area” value is “only slightly attenuated”, the “Left kidney weight corrected for body weight (renal hypertrophy)” value was “no effect on renal weight” and the “Plasma aldosterone concentration (PAC)” value is recorded as “exacerbated hyperaldosteronemia”. In addition, the “Plasma K+ levels” value in data set [1] (Day 60, versus Nx + V) is on record as “not aggravated”. Besides, in data set [1] (Eple 150 mg/kg/day, Ly 20 mg/kg/day oral), the “Tail-cuff pressure (TCP)” value was “partially prevented the elevation of TCP”. Moreover, the “Plasma renin activity (PRA)” value in data set [2] (Day 150) was “significantly elevated compared to S, Nx and Nx + L”. Besides, the “Maximal nontoxic dose, defined by stunting of body growth” value in the data set with Nx rats is given as 150 mg/kg. Further, the “Dose-response effect on the parameters studied” value in the data set on Nx rats (Eple 85 mg/kg vs 150 mg/kg) was “No dose-response effect was observed”. Further, the PRA result in the data set on Nx rats (Eple 150 mg/kg dose vs 85 mg/kg) was “slight increase in PRA”. Moreover, in the data set with Nx rats (Eple, dose higher than 150 mg/kg), the Body growth entry is “body growth limitation”.
As for `CCCCc1nc(Cl)c(CO)n1Cc1ccc(-c2ccccc2-c2nn[nH]n2)cc1` [L, losartan], in data set [2] (Day 150), the “Density of interstitial AngII+ cells” value was “not significantly altered”, the Interstitial macrophage infiltration result is given as “numerically but not significantly reduced”, the “Percent cortical area occupied by collagen I (interstitial fibrosis)” value is on record as “failed to reduce significantly” and the “Percentage of glomeruli with sclerotic lesions (GS%)” value is given as “partly prevented GS”. Further, in data set [2] (Day 150), the “Plasma aldosterone concentration (PAC)” value was “significantly reduced PAC compared to S or Nx + V” and the “Plasma renin activity (PRA)” value is given as “normalized PRA”. In addition, the “Albumin excretion rate (UalbV)” value in data set [2] (treatment Day 60-150) is given as “prevented the progression of albuminuria”. For the same compound, the “Tail-cuff pressure (TCP)” value in data set [2] (treatment Day 60-150, L 50 mg/kg, Eple 150 mg/kg/day, Ly 20 mg/kg/day) is listed as “mitigated”.
What is called Ki is the equilibrium dissociation constant of an inhibitor or competing ligand from its target. In the case of `CC(=O)S[C@@H]1CC2=CC(=O)CC[C@]2(C)[C@H]2CC[C@@]3(C)[C@@H](CC[C@@]34CCC(=O)O4)[C@H]12` [Spironolactone, spironolactone, reference compound], the Ki in data set [3] amounted to 33 ± 7 nM.
